These results are taken from publication PMC8329502 (Toxicology Reports, 2021).

The target in the data set is T1, cytochrome P450 1A2 (CYP1A2) (Homo sapiens, UniProt P05177).
T1 sequence (P05177 2-516): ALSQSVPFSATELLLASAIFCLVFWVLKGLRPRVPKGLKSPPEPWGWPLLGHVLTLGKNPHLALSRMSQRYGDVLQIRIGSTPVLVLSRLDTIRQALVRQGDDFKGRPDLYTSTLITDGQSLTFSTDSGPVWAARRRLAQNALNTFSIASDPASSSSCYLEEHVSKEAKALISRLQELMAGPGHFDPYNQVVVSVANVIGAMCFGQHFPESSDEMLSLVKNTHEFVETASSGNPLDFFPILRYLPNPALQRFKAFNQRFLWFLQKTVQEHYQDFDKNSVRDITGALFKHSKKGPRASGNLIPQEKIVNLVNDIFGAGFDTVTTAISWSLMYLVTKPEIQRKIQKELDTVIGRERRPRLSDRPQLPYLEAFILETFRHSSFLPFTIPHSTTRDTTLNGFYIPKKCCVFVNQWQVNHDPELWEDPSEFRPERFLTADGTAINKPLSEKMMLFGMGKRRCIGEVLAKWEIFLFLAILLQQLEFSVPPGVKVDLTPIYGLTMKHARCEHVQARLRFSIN
The data set can be described thus: […]-caffeine 3-N-demethylation in 50-donor pooled human liver microsomes. Format: biochemical. For orientation: Liver microsomes are vesicles of endoplasmic reticulum, rich in cytochrome P450 enzymes.

For the compound `COc1c2ccoc2c(OC)c2oc(=O)ccc12` [ISOP, isopimpinellin], half-maximal inhibition (IC50) was put at 277 nM.

As to `COc1c2ccoc2cc2oc(=O)ccc12` [5-MOP, 5-methoxypsoralen], inhibition was half-maximal at 68.8 nM (IC50).
